Test results reported in US10155765B2, “Carboxamide inhibitors of IRAK4 activity” (MERCK SHARP & DOHME CORP., priority 2015, dated 2018).
Where a name gives a salt, the structure may show the parent alone.

Biological target: IRAK4 (Homo sapiens (Human), UniProt Q9NWZ3)
Test: IRAK4 Kinase Assay (IMAP fluorescence polarization)
Format: biochemical
Conditions: GST tagged IRAK4, 100 μM ATP, 30 minutes at 25° C., IMAP FP
Excerpt: Other assays are known in the literature and could be readily performed by those of skill in the art.
The reaction is initiated by the addition of ATP.

IRAK4, sequence (Q9NWZ3 whole entry): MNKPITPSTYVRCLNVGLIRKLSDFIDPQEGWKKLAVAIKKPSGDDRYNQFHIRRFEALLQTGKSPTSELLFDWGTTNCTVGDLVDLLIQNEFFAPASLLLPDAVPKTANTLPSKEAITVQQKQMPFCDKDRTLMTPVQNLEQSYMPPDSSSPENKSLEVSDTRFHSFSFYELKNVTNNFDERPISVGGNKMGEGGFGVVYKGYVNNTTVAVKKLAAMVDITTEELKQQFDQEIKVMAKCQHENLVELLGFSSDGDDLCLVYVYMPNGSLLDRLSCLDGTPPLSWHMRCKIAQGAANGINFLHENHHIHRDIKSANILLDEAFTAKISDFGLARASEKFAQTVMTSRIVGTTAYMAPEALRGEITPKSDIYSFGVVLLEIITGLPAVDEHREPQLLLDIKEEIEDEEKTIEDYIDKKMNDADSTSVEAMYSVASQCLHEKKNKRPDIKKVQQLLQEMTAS

Compound | IC50 [nM]
Cn1cc(NC(=O)c2cnn3ccc(N4CCNCC4)nc23)c(C(N)=O)n1 [Example 31, N-(3-carbamoyl-1-methyl-1H-pyrazol-4-yl)-5-piperazin-1-ylpyrazolo[1,5-a]pyrimidine-3-carboxamide hydrochloride] | 37
Cn1cc(NC(=O)c2cnn3ccc(NC4CCCCCC4N)nc23)c(C(N)=O)n1 (centres unmarked) [Example 13, 5-[(2-aminocycloheptyl)amino]-N-(3-carbamoyl-1-methyl-1H-pyrazol-4-yl)pyrazolo[1,5-a]pyrimidine-3-carboxamide] | 2
CCn1cc(NC(=O)c2cnn3ccc(N[C@@H]4CCCC[C@@H]4N)nc23)c(C(N)=O)n1 [Example 21, 5-{[(1R,2S)-2-Aminocyclohexyl]amino}-N-(3-carbamoyl-1-ethyl-1H-pyrazol-4-yl)pyrazolo[1,5-a]pyrimidine-3-carboxamide] | 0.6
NCCNc1ccn2ncc(C(=O)Nc3cn(-c4cccnc4)nc3C(N)=O)c2n1 [Example 11, 5-[(2-aminoethyl)amino]-N-(3-carbamoyl-1-pyridin-3-yl-1H-pyrazol-4-yl)pyrazolo[1,5-a]pyrimidine-3-carboxamide] | 0.7
NC(=O)c1nn(-c2cccnc2)cc1NC(=O)c1cnn2ccc(N3CCNCC3)nc12 [Example 36, N-(3-carbamoyl-1-pyridin-3-yl-1H-pyrazol-4-yl)-5-piperazin-1-ylpyrazolo[1,5-a]pyrimidine-3-carboxamide trifluoroacetate] | 33
CC(C)(C)c1cc(NC(=O)c2cnn3cccnc23)c(C(N)=O)s1 [Example 51, N-(5-tert-butyl-2-carbamoylthiophen-3-yl)pyrazolo[1,5-a]pyrimidine-3-carboxamide hydrochloride] | 8500
CN1CCCC(Cn2cc(NC(=O)c3cnn4ccc(N[C@@H]5CCCC[C@@H]5N)nc34)c(C(N)=O)n2)C1 (stereo partly drawn) [Example 25, 5-{[(1R,2S)-2-aminocyclohexyl]amino}-N-{3-carbamoyl-1-[(1-methylpiperidin-3-yl)methyl]-1H-pyrazol-4-yl}pyrazolo[1,5-a]pyrimidine-3-carboxamide trifluoroacetate] | 2
CCn1cc(NC(=O)c2ccc3cnc(N[C@@H]4CCCC[C@@H]4N)nn23)c(C(N)=O)n1 [Example 62, 2-{[(1R,2S)-2-aminocyclohexyl]amino}-N-(3-carbamoyl-1-ethyl-1H-pyrazol-4-yl)pyrrolo[2,1-f][1,2,41triazine-7-carboxamide trifluoroacetate] | 1
NC(=O)c1nn(-c2cccnc2)cc1NC(=O)c1cnn2cccnc12 [Example 44, N-(3-carbamoyl-1-pyridin-3-yl-1H-pyrazol-4-yl)pyrazolo[1,5-a]pyrimidine-3-carboxamide] | 59
NC(=O)c1nn(-c2ccccn2)cc1NC(=O)c1cnn2ccc(N3CCNCC3)nc12 [Example 37, N-(3-Carbamoyl-1-pyridin-2-yl-1H-pyrazol-4-yl)-5-piperazin-1-ylpyrazolo[1,5-a]pyrimidine-3-carboxamide] | 1000
Cn1cc(NC(=O)c2cnn3ccc(N[C@H]4CCS(=O)(=O)C[C@H]4N)nc23)c(C(N)=O)n1 (relative stereo) [Example 4, 5-{[cis-3-amino-1,1-dioxidotetrahydro-2H-thiopyran-4-yl]amino}-N-(3-carbamoyl-1-methyl-1H-pyrazol-4-yl)pyrazolo[1,5-a]pyrimidine-3-carboxamide trifluoroacetate] | 5
NC(=O)c1nn(-c2ccncc2)cc1NC(=O)c1cnn2ccc(N3CCNCC3)nc12 [Example 34, N-(3-carbamoyl-1-pyridin-4-yl-1H-pyrazol-4-yl)-5-piperazin-1-ylpyrazolo[1,5-a]pyrimidine-3-carboxamide trifluoroacetate] | 25
CNC(=O)c1nn(C)cc1NC(=O)c1cnn2ccc(N[C@H]3CCCC[C@H]3N)nc12 (relative stereo) [Example 16, 5-{[cis-2-aminocyclohexyl]amino}-N-[1-methyl-3-(methylcarbamoyl)-1H-pyrazol-4-yl]pyrazolo[1,5-a]pyrimidine-3-carboxamide trifluoroacetate] | 18
Cn1cc(NC(=O)c2cnn3ccc(N[C@H]4COCC[C@H]4N)nc23)c(C(N)=O)n1 [Example 1, 5-(((3R,4R)-4-Aminotetrahydro-2H-pyran-3-yl)amino)-N-(3-carbamoyl-1-methyl-1H-pyrazol-4-yl)pyrazolo[1,5-a]pyrimidine-3-carboxamide] | 31
CC(C)(C)OC(=O)N1CCC(n2cc(NC(=O)c3cnn4cccnc34)c(C(N)=O)n2)CC1 [Example 46, tert-butyl 4-{3-carbamoyl-4-[(pyrazolo[1,5-a]pyrimidin-3-ylcarbonyl)amino]-1H-pyrazol-1-yl}piperidine-1-carboxylate] | 670
Cn1cc(NC(=O)c2cnn3ccc(N4CCNC(=O)C4)nc23)c(C(N)=O)n1 [Example 38, N-(3-Carbamoyl-1-methyl-1H-pyrazol-4-yl)-5-(3-oxopiperazin-1-yl)pyrazolo[1,5-a]pyrimidine-3-carboxamide] | 400

Compound | IC50 [nM]
NC(=O)c1nn(-c2cccnc2)cc1NC(=O)c1cnn2ccc(N[C@H]3CCCC[C@H]3N)nc12 (relative stereo) [Example 6, 5-{[cis-2-aminocyclohexyl]amino}-N-(3-carbamoyl-1-pyridin-3-yl-1H-pyrazol-4-yl)pyrazolo[1,5-a]pyrimidine-3-carboxamide] | 0.8
Cn1cc(NC(=O)c2cnn3ccc(NC4CCNC4)nc23)c(C(N)=O)n1 (centres unmarked) [Example 14, N-(3-carbamoyl-1-methyl-1H-pyrazol-4-yl)-5-(pyrrolidin-3-ylamino)pyrazolo[1,5-a]pyrimidine-3-carboxamide hydrochloride] | 120
Cn1cc(NC(=O)c2cnn3ccc(N[C@@H]4CCOC[C@@H]4N)nc23)c(C(N)=O)n1 [Example 2, 5-{[(3R,4R)-3-aminotetrahydro-2H-pyran-4-yl]amino}-N-(3-carbamoyl-1-methyl-1H-pyrazol-4-yl)pyrazolo[1,5-a]pyrimidine-3-carboxamide trifluoroacetate] | 0.6
CN1CCCC(n2cc(NC(=O)c3cnn4ccc(N[C@H]5CCCC[C@H]5N)nc34)c(C(N)=O)n2)C1 (relative stereo) [Example 10, 5-{[cis-2-aminocyclohexyl]amino}-N-[3-carbamoyl-1-(1-methylpiperidin-3-yl)-1H-pyrazol-4-yl]pyrazolo[1,5-a]pyrimidine-3-carboxamide trifluoroacetate] | 25
CNC(=O)c1nn(C)cc1NC(=O)c1ccc2cnc(N[C@@H]3CCCC[C@@H]3N)nn12 [Example 64, 2-{[(1R,2S)-2-aminocyclohexyl]amino}-N-[1-methyl-3-(methylcarbamoyl)-1H-pyrazol-4-yl]pyrrolo[2,1-f][1,2,4]triazine-7-carboxamide trifluoroacetate] | 13
COCCn1cc(NC(=O)c2cnn3ccc(N[C@@H]4CCCC[C@@H]4N)nc23)c(C(N)=O)n1 [Example 24, 5-{[(1R,2S)-2-aminocyclohexyl]amino}-N-[3-carbamoyl-1-(2-methoxyethyl)-1H-pyrazol-4-yl]pyrazolo[1,5-a]pyrimidine-3-carboxamide] | 3
NC(=O)c1nn(CCO)cc1NC(=O)c1cnn2ccc(N[C@@H]3CCCC[C@@H]3N)nc12 [Example 23, 5-{[(1R,2S)-2-aminocyclohexyl]amino}-N-[3-carbamoyl-1-(2-hydroxyethyl)-1H-pyrazol-4-yl]pyrazolo[1,5-a]pyrimidine-3-carboxamide trifluoroacetate] | 1
CS(=O)(=O)N1CCC(n2cc(NC(=O)c3cnn4ccc(N[C@H]5CCCC[C@H]5N)nc34)c(C(N)=O)n2)CC1 (relative stereo) [Example 18, 5-{[cis-2-Aminocyclohexyl]amino}-N-{3-carbamoyl-1-[1-(methylsulfonyl)piperidin-4-yl]-1H-pyrazol-4-yl}pyrazolo[1,5-a]pyrimidine-3-carboxamide] | 2
NCCNc1ncc2ccc(C(=O)Nc3cn(CCO)nc3C(N)=O)n2n1 [Example 59, 2-[(2-aminoethyl)amino]-N-[3-carbamoyl-1-(2-hydroxyethyl)-1H-pyrazol-4-yl]pyrrolo[2,1-f][1,2,4]triazine-7-carboxamide trifluoroacetate] | 2
NC(=O)c1ncccc1NC(=O)c1cnn2cccnc12 [Example 41, N-(2-Carbamoylpyridin-3-yl)pyrazolo[1,5-a]pyrimidine-3-carboxamide] | 4400
NC(=O)c1ccccc1NC(=O)c1cnn2cccnc12 [Example 52, N-(2-carbamoylphenyl)pyrazolo[1,5-a]pyrimidine-3-carboxamide hydrochloride] | 7600
NC(=O)c1cnccc1NC(=O)c1cnn2cccnc12 [Example 49, N-(3-carbamoylpyridin-4-yl)pyrazolo[1,5-a]pyrimidine-3-carboxamide hydrochloride] | 710
Cn1cc(NC(=O)c2ccc3cnc(NCCN)nn23)c(C(N)=O)n1 [Example 58, 2-[(2-Aminoethyl)amino]-N-(3-carbamoyl-1-methyl-1H-pyrazol-4-yl)pyrrolo[2,1-f][1,2,4]triazine-7-carboxamide] | 0.9
Cn1cc(NC(=O)c2cnn3ccc(NC4CCCCC4)nc23)c(C(N)=O)n1 [Example 26, N-(3-carbamoyl-1-methyl-1H-pyrazol-4-yl)-5-(cyclohexylamino)pyrazolo[1,5-a]pyrimidine-3-carboxamide trifluoroacetate] | 180
CN1CCC(n2cc(NC(=O)c3cnn4ccc(N[C@H]5CCCC[C@H]5N)nc34)c(C(N)=O)n2)CC1 (relative stereo) [Example 19, 5-{[cis-2-Aminocyclohexyl]amino}-N-[3-carbamoyl-1-(1-methylpiperidin-4-yl)-1H-pyrazol-4-yl]pyrazolo[1,5-a]pyrimidine-3-carboxamide] | 2
NC(=O)c1nn(C2CCNCC2)cc1NC(=O)c1cnn2cccnc12 [Example 47, N-(3-carbamoyl-1-piperidin-4-yl-1H-pyrazol-4-yl)pyrazolo[1,5-a]pyrimidine-3-carboxamide hydrochloride] | 470
